Measurements taken from patent US9796742B2, “Kinase inhibitors” (Respivert Limited, priority 2012, dated 2017).
Read-outs that look alike come from different tables or passages of the source.

What was measured:
PBMCs = assay: IL-2 and IFN gamma release in CD3/CD28 stimulated PBMC cells; assay type: cell-based; conditions: Homo sapiens
Procedure, shortened: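 They were cultured with compound for 3 days. IL-2 and IFN-γ in supernatants were quantified by sandwich ELISA, and IC50 was derived from the dose-response curve.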

HT29 cells = assay: IL-1β-induced IL-8 release in HT29 cells; assay type: cell-based; conditions: Homo sapiens, HT-29, IL-1β-stimulated HT29 cells, read-out: IC50 Values for Inhibition of Cytokine Release, HT29 cells IL-8
Experimental: HT29 cells, a human colon adenocarcinorna cell line, are plated in a 96 well plate (24 hrs) and pre-treated with compounds at the desired concentration for 2 hours before addition of 5 ng/mL of IL-1β (Abcam) for 24 hours. Supernatants are harvested for IL-8 quantification by Sandwich ELISA (Duo-set, R&D System). The IC50 is determined from the dose response curve.

GSK3α = GSK3α (Homo sapiens (Human), UniProt P49840); assay: GSK 3α enzyme inhibition (FRET, Z-LYTE; Method 2); assay type: biochemical
Chain of GSK3α (P49840 whole entry): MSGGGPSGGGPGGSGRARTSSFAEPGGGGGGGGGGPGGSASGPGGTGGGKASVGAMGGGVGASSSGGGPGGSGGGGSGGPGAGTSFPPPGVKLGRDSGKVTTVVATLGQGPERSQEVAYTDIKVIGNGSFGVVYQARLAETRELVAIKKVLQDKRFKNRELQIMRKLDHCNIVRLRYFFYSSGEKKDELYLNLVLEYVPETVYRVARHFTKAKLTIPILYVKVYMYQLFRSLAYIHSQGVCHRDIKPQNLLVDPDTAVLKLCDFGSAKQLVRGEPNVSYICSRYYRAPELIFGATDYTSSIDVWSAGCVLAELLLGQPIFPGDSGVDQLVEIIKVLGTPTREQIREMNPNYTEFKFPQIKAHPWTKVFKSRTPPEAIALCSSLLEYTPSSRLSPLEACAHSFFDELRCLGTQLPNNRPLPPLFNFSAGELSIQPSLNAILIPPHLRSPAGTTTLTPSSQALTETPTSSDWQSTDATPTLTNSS
Procedure, shortened: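 GSK3-α protein preincubated with compound for 105 min, then Z-LYTE FRET peptide and ATP added for 1 h before protease development for 1 h. Phosphorylation taken from coumarin/fluorescein emission ratio; percent inhibition against uninhibited control and IC50 calculated from concentration-response curves.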

IC50 (HT29 cells): 0.8 nM | IC50 (GSK3α): 1100 nM
SMILES: COCCOCCOCCOc1cc(Nc2nccc(Oc3ccc(NC(=O)Nc4cc(C(C)(C)C)nn4-c4cccc(CP(C)(C)=O)c4)c4ccccc34)n2)cc(OC)c1 [Example 60, 1-(3-(tert-Butyl)-1-(3-((dimethylphosphoryl)methyl)phenyl)-1H-pyrazol-5-yl)-3-(4-((2-((3-methoxy-5-(2-(2-(2-methoxyethoxy)ethoxy)ethoxy)phenyl)amino)pyrimidin-4-yl)oxy)-naphthalen-1-yl)urea]
IC50 (PBMCs; IFNγ, read-out: IC50 Values for Inhibition of Cytokine Release, PBMCs IFNγ): 1.9 nM | IC50 (PBMCs; IL-2, read-out: IC50 Values for Inhibition of Cytokine Release, PBMCs IL-2): 16 nM
